Source: ChEMBL document CHEMBL5223177, “Pyrazole Ureas as Low Dose, CNS Penetrant Glucosylceramide Synthase Inhibitors for the Treatment of Parkinson's Disease” (ACS Med Chem Lett, 2023)

Columns and labels:
[1] = target: T1, Ceramide glucosyltransferase (Homo sapiens, UniProt Q16739); assay: Inhibition of GCS in human fibroblast; assay type: cell-based
T1 sequence (Q16739 whole entry): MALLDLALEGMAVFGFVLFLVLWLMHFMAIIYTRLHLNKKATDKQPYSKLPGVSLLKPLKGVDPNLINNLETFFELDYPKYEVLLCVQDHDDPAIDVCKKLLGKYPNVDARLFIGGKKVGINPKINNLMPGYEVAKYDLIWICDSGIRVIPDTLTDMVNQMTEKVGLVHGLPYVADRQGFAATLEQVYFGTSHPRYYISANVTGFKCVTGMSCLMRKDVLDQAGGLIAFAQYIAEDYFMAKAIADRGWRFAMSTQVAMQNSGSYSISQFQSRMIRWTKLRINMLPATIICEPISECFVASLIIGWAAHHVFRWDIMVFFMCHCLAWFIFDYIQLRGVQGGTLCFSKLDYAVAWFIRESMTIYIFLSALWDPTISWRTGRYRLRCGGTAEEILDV

[2] = target: T2, 5-hydroxytryptamine receptor 3A (Homo sapiens, UniProt P46098); assay: Antagonist activity at human 5HT3A expressed in HEK293 cells incubated for 1 hr by FLIPR assay; assay type: cell-based
T2 sequence (P46098 whole entry): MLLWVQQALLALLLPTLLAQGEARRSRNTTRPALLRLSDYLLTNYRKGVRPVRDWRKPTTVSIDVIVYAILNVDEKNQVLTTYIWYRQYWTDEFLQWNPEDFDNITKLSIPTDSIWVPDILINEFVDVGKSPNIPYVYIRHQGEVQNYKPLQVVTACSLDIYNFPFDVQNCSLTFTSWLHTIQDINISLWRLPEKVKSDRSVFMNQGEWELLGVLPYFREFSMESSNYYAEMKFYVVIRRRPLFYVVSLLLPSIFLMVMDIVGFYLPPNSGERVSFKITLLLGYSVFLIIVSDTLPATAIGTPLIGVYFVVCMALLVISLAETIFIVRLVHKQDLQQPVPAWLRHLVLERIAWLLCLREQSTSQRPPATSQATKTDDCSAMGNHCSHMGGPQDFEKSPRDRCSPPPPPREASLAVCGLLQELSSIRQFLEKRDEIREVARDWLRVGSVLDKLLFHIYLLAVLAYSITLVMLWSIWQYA

mouse BCRP (ABCG2) [3] = target: T3, mouse BCRP (ABCG2) (Mus musculus, UniProt Q7TMS5); assay: Substrate activity at mouse BCRP assessed as apparent permeability at 1 uM; assay type: ADME; details: not told
T3 sequence (Q7TMS5 whole entry): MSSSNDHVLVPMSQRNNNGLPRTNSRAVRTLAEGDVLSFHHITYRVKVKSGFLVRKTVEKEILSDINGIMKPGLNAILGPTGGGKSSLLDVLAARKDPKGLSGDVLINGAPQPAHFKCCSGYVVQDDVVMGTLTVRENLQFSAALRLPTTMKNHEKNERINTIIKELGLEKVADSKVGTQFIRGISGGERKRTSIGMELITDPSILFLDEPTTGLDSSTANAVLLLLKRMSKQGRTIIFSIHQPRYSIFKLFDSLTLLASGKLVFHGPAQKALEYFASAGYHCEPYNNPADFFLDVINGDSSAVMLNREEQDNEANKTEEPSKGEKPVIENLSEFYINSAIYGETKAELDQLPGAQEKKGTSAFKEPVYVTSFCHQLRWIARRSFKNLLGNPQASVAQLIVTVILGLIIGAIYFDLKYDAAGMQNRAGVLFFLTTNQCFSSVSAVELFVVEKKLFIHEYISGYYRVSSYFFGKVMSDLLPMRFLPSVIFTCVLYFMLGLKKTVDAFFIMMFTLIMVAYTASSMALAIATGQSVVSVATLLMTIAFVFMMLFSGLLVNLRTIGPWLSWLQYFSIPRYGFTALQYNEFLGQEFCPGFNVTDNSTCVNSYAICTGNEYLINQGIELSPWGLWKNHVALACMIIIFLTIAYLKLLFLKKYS

[4] = Intrinsic clearance in rat at 5 to 10 mg/kg, po or 0.05 to 2 mg/kg, iv; assay type: ADME, organism-based; details: in vivo, dose 5-10 mg/kg
Homo sapiens = organism: Homo sapiens; assay: Selectivity ratio of IC50 for human 5HT3A to IC50 for GCS (unknown origin)
[5] = Mean residence time in rat at 5 to 10 mg/kg, po or 0.05 to 2 mg/kg, iv; assay type: ADME, organism-based; details: in vivo, dose 5-10 mg/kg
rat P-gp [6] = assay: Substrate activity at rat P-gp assessed as efflux ratio at 1 uM; assay type: ADME; details: not told
mouse BCRP (ABCG2) [7] = target: T3, mouse BCRP (ABCG2); assay: Substrate activity at mouse BCRP assessed as efflux ratio at 1 uM; assay type: ADME; details: not told
[8] = target: T1, Ceramide glucosyltransferase; assay: Inhibition of Glucosylceramide synthase (unknown origin) using C6-ceramide and UDP-glucose as substrate preincubated for 30 mins followed by substrate addition and measured after 2 hrs by UDP-Glo luminometer analysis
rat P-gp [9] = assay: Substrate activity at rat P-gp assessed as apparent permeability at 1 uM; assay type: ADME; details: not told
[10] = Lipophilicity, logD of compound by HPLC method; assay type: physicochemical
[11] = Bioavailability in rat at 5 to 10 mg/kg, po or 0.05 to 2 mg/kg, iv; assay type: ADME, organism-based; details: in vivo, dose 5-10 mg/kg

Structure (SMILES)	IC50 [1] [µM]	IC50 [2] [µM]	Papp at 1 µM (mouse BCRP (ABCG2) [3]) [nm/s]	CL [4] [L/h/kg]	Ratio IC50 (Homo sapiens)	MRT [5] [h]	efflux ratio at 1 µM (rat P-gp [6])	efflux ratio at 1 µM (mouse BCRP (ABCG2) [7])	IC50 [8] [µM]	Papp at 1 µM (rat P-gp [9]) [nm/s]	logD [10]	bioavailability [11] [%]
O=C(N1CCN2CCC1CC2)n1nc(-c2ccc(C(F)(F)F)cc2)c2c1COCC2	0.021	1.59	330	36.6	647	3.3	3.2	1.2				
CCN1CCCN(C(=O)c2nn(-c3ccc(OC)cc3)c3c2COCC3)CC1									7.4			
COc1ccc(-n2nc(C(=O)N3CCCN(C)CC3)c3c2CCOC3)cc1	0.18						5		1			
O=C(c1nn(-c2ccc(F)c(Cl)c2)c2c1COCC2)N1CCN2CCC1CC2							19		0.006	320	1.9	
CC1(C)Cc2c(c(-c3ccc(F)cc3)nn2C(=O)N2CCN3CCC2CC3)CO1	0.032	4.21	310	10.8	470	2.6	8.5	0.9				
COc1ccc(-n2nc(C(=O)N3CCN(C)CC(F)C3)c3c2CCOC3)cc1 (racemic)									12.5			
COc1ccc(-n2nc(C(=O)N3CCNCC(CO)C3)c3c2CCOC3)cc1 (racemic)										60		
COc1ccc(-n2nc(C(=O)N3CCCNCC3)c3c2CCOC3)cc1									0.69			
O=C(N1CCN2CCC1CC2)n1nc(-n2cc(C(F)(F)F)cn2)c2c1[C@H]1C[C@H]1C2	0.033	2.47	230	5.1	25000	8.2	2.2	0.8				67
O=C(N1CCN2CCC1CC2)n1nc(-n2cc(C(F)(F)F)cn2)c2c1CCC2	0.032	2.19	240	5.34	5480	5.9	1.7	0.8				25
O=C(N1CCN2CCC1CC2)n1nc(-n2cc(C(F)(F)F)cn2)c2c1CCOC2	0.032	7.47	420	2.34	2070	3.2	2.7	1.2				
COc1ccc(-c2nn(C(=O)N3CCN4CCC3CC4)c3c2CCOC3)cc1	0.035	0.338	320	210.6	164	0.7	4.4	1.4				
O=C(N1CCN2CCC1CC2)n1nc(-c2ccc(F)c(Cl)c2)c2c1COCC2							1.7		0.001	240	2.8	
COc1ccc(-n2nc(C(=O)N3CCN4CCC3CC4)c3c2CCOC3)cc1										310		
O=C(N1CCN2CCC1CC2)n1nc(-n2cc(Cl)cn2)c2c1COCC2	0.037	0.585	320	7.2	96	1.1	4.4	1.4				
COc1ccc(-n2nc(C(=O)N3CC(c4cnc(C)n4C)C3)c3c2CCOC3)cc1									> 28			
